Where two headings read alike, the source gives them in different places. No end group written: not given here.
Assays:
[1] = system: cartilage proteoglycan degradation; conditions: 100 μM; cited from earlier work
human liver Cathepsin L = target: T1, human liver Cathepsin L (Homo sapiens, UniProt P07711); assay: Cathepsin L fluorescence assay (hydrolysis of Z-Phe-Arg-AMC); format: biochemical
T1 construct: from tissue; host or cells: human liver
Method: A fluorescence based assay was set up according to Barrett and Kirschke (Barrett et al., 1981, Meth. in Enz., 80:535).
The enzyme sample was diluted with 750 μl of assay buffer (340 mM sodium acetate--60 mM acetic acid--4 mM disodium EDTA, pH 5.5 and 8 mM DTT added fresh) and various concentrations of CTAL-2β (a final concentration of 5-50 nM), was added. After an incubation period of 6 minutes at room temperature, 1500 μl of 0.1% Brij 35 was added. The substrate Z-Phe-Arg-AMC (AMC is aminomethyl-coumarin) was added at a final concentration of either 2.5 μM or 5.0 μM.
The fluoresence of the free aminomethyl-coumarin was measured in an SLM 4800S fluorimeter by excitation at 370 nm and emission at 432 nm over a six minute time period. […] In order to calculate the velocities, a linear least squares analysis was performed over the initial linear part of the data.
The Ki value is equal to the negative of the X-axis intercept that gives the same velocity at the different substrate concentrations if there is competitive inhibition (Dixon et al., 1979, Enzymes, 3rd Ed., Academic Press, New York, page, 365).
These peptides were tested for inhibition of Cathepsin L activity using the assays described previously. Briefly, Cathepsin L (19 pM final as determined by active site titration using E-64, Barret & Kirschke, 1991) was added to 750 μL of assay buffer consisting of […] sodium acetate--60 mM acetic acid (pH 5.5), 4 mM disodium EDTA, and 8 mM DTT. Peptides were added at concentrations ranging from on to 35 μM. […] The fluorescence of the free aminomethylcoumarin was measured in an SLM 4800s fluorimeter at excitation of 370 nm and an emission at 432 nm over a 6 minute time period. Fluorence was converted to μM AMC released by using a standard curve generated by plotting μM AMC vs. fluorescence, and plotted vs. time. […] The i.c. 50 values were determined from Dixon plots of the form V-/V+ (velocity without peptide/velocity with peptide) vs. peptide concentration. […]

[2] = system: proteoglycan release from articular cartilage explants; assay: Micro organ culture assay (MOCA): IL-1 induced proteoglycan release from articular cartilage explants; format: cell-based, calf; conditions: p117 10 μM (best concentration); IL-1 alpha 50 U/ml
Text: The assay system used for testing the peptides for inhibitory activity of proteolglycan release is a micro organ culture assay (MOCA). Papain; cetyl pyridinium chloride and chondroitin sulfate type C was purchased from Sigma Chemical Co. (St. Louis, MO). Interleukin 1 alpha was purchased from Collaborative Research. ABCase, chrondroitinase, ABC lyase, and keratanase were obtained from ICL Na^35 SO4 was purchased from NEN.
Articular cartilage explants from calk knee joints were maintained in culture in DMEM medium containing 20 μCi/ml Na ^35 SO4 for 48 hours for the incorporation of label into newly synthesized proteoglycan (PG). The radiolabelled medium was then removed, the radiolabelled explants washed 3×30 ml cold DMEM and placed into a 96 well plate with or without IL-1 (Interleukin-1 alpha, 50 U/ml) and various concentrations of p117. The explants were incubated first for 24 hours in the presence of IL-1 in order to ensure initiation of IL-1 indicated auto-catalysis prior to the addition of various metalloprotease inhibitors for an additional 72 hours.
The newly synthesized radiolabelled proteoglycans released during the cultivation period were subjected to enzymatic digestion with papain. […] The filter was dried and counted after addition of 10 mls of scintillation cocktail (scintillant).

papain = papain (Carica papaya, UniProt P00784); conditions: read-out: i.c. 50 in Papain Assay; substrate Z-Phe-Arg-AMC; papain 33.3 ng/ml; Dixon plot V-/V+ vs. I
Method: The fluorescence was measured and the i.c. 50 was determined.

T1 sequence (P07711 114-288 limits assumed): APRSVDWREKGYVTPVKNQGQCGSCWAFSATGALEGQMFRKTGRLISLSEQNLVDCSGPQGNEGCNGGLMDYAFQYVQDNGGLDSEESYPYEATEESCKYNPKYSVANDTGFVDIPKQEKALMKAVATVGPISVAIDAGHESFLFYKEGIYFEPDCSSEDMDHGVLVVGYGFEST
T1 sequence (P07711 292-333 limits assumed): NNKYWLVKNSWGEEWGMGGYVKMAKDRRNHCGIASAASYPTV
papain, sequence (P00784 134-345): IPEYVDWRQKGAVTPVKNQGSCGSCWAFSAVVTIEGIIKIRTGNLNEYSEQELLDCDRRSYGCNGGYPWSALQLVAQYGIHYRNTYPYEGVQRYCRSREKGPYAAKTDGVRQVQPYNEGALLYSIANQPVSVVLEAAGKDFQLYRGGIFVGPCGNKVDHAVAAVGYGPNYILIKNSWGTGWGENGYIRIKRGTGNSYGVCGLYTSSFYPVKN

In the case of CC(C)C[C@H](NC(=O)[C@H]1O[C@@H]1C(=O)O)C(=O)NCCCCN=C(N)N (relative stereo) [E64, trans-epoxysuccinyl L-leucylamido-(4-guanido)butane], the “inhibition of IL-1 stimulated cartilage proteoglycan degradation” value [1] is listed as “did not work”.

For CC(C)CCNC(=O)[C@H](CC(C)C)NC(=O)[C@H]1O[C@@H]1C(=O)O [Ep475], the “inhibition of IL-1 stimulated cartilage proteoglycan degradation” value [1] is given as “did not work”.

For CRGEMAPDLPEYEDLG [p092], the IC50 (human liver Cathepsin L; Cathepsin L 19 pM, 5.0 μM Z-Phe-Arg-NMec (AMC), 6 minute incubation at 25° C., read-out: i.c. 50 (synthetic peptides, Cathepsin L)) was 41000 nM.

For ENKKKIEAHNADYERGKTSFC [P089], the “inhibition of Cathepsin L at 10 uM peptide” value (human liver Cathepsin L; peptide 10 uM, printed in the i.c. 50 column) was 25%.

In the case of YSLDEERHRRLMWEENKKKIEAH [p117], the “% inhibition of proteoglycan release” value [2] is reported as “about 30%”.

B1: monomeric CTLA-2β: monomeric form of recombinant CTLA-2β, mass 12.8 kd, reverse-phase purified (protein, UniProt P12400 1-113, looked up)
Protein CTLA-2-beta: MMSAAPSPDPSLDNEWKEWKTTFAKAYSLDEERHRRLMWEENKKKIEAHNADYERGKTSFYMGLNQFSDLTPEEFRTNCCGSSMCRGEMAPDLPEYEDLGKNSYLTPGRAQPE
Work on B1 yielded an IC50 (papain) of 14 nM and an IC50 (human liver Cathepsin L; reverse-phase purified CTLA-2β, Dixon plot V-/V+ vs. I, substrate Z-Phe-Arg-AMC, read-out: i.c. 50 in Cathepsin L Assay) of 18.2 nM.
